Patent US12180183B2, “Water-soluble fluorescent probe and nanoparticals with aggregation-induced emission effect for ovarian cancer and preparation method and use thereof” (HUNAN TARGETING DETECTION TECHNOLOGY CO., LTD, priority 2018, dated 2024)

Legend:
[1] = Dynamic light scattering of the self-assembled probe nanoparticles; format: physicochemical; conditions: compound 3 20 μM in phosphate buffer solution pH=7.4, dynamic light scattering
Experimental: (§1) 40 μL of compound 3 (1 mM) in a phosphate buffer solution was taken by using a pipette and placed in an ep-tube. 1960 μL of a phosphate buffer solution (pH=7.4) was added into the ep-tube under an ultrasonic condition so that the final concentration of compound 3 was 20 μM. The mixture was stirred for 30 min under room temperature to generate opalescence. In order to verify nano-aggregation behavior thereof, an average particle size thereof measured by a dynamic light scattering experiment was 600 nm, as shown in FIG. 1.

[2] = Linear relationship between fluorescence intensity of the probe nanoparticles and lysophosphatidic acid concentration; conditions: compound 3 20 μM, phosphate buffer pH 7.4, incubated 1 min at room temperature
Experimental: as §1
A series of different volumes of the stock solution of lysophosphatidic acid in the phosphate buffer solution were respectively added to the system prepared in Example 2, so that the final concentrations of lysophosphatidic acid respectively were 0 μM, 0.2 μM, 0.4 μM, 0.8 μM, 1.0 μM, 1.2 μM, 1.4 μM, 1.8 μM, 2.0 μM, 4.0 μM, 8.0 μM, 10.0 μM, 12.0 μM, 14.0 μM, 16.0 μM, 18.0 μM, 20.0 μM, 25.0 μM, 30.0 μM, 33.0 μM. After all of testing solution were prepared, the testing solutions were mixed uniformly with a vortex. After being incubated for 1 min at room temperature, the fluorescence emission intensity thereof at 557 was measured.

[3] = Selectivity of the fluorescent nanoprobe for detecting lysophosphatidic acid; conditions: compound 3 10 μM, excitation 400 nm
Experimental: The prepared fluorescent molecular probe solution was used for evaluating the selectivity of the probe to lysophosphatidic acid. An excitation wavelength of the nanoprobe was 400 nm. The concentration of the compound 3 in the system was 10 μM. Lysophosphatidic acid with a final concentration of 50 μM and L-proline, glycerin, sodium phosphate, magnesium sulfate, sodium acetate, sodium nitrate, sodium fluoride, glucose, urea, and lysophosphatidyl choline (LPC) with a final concentration of 1 mM were respectively added into the system. After fully mixing, the systems were incubated for 1 min at room temperature. Then fluorescence emission spectra thereof were measured and the fluorescence emission intensities at 557 nm were recorded.

SMILES: COc1ccc(-c2nc(-c3cc[n+](CCCCCCCCCCCC[n+]4ccccc4)cc3)n(-c3ccccc3)c2-c2ccc(OC)cc2)cc1 [Compound 3]
- average particle size [1]: 600 nm
- lysophosphatidic acid concentration range with good linear relationship to fluorescence intensity at 557 nm [2]: 0 to 33 µM
- fluorescence emission at 557 nm after addition of lysophosphatidic acid ([3]; lysophosphatidic acid 50 μM, 1 min at room temperature): strong yellow fluorescence
- fluorescence emission at 557 nm after addition of other substances ([3]; L-proline, glycerin, sodium phosphate, magnesium sulfate, sodium acetate, sodium nitrate, sodium fluoride, glucose, urea, LPC each 1 mM): could not be observed to generate yellow fluorescence
